Experimental data: patent US20190211317A1, “PEPTIDES AND NANOPARTICLES FOR INTRACELLULAR DELIVERY OF GENOME-EDITING MOLECULES” (Aadigen, LLC, priority 2016, published 2019)
Where “and” joins values, the source holds several entries; their conditions need not be identical. Identical values can stand only once. No end group written: not given here.

Tests used:
[1] = tested on: EGFP reporter gene in EGFP-U2OS, EGFP-HEK, EGFP-JURKAT cells; test: EGFP reporter gene disruption from CPP delivery of CAS9:sgRNA (flow cytometry); format: cell-based, human; details: for reduction of EGFP-positive cells: EGFP-JURKAT; for decrease in EGFP expression: CAS9:gRNA 50 nM, CPP:cargo 20:1; for reduction of EGFP-expressing cells / loss of EGFP expression: JURKAT;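 as to all read-outs here: cells carrying one integrated EGFP reporter received peptide-complexed CAS9 preloaded 1:1 with EGFP sgRNA, cultured 72 h, then EGFP level read by flow cytometry, lipofectamine 2000 and RNAiMAX as positive controls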
Description: Efficacy of CPP-mediated delivery was quantified using a well-established CAS9-induced gene disruption method (Fu et al, 2013, supra), by targeting a specific site in the exogenous EGFP gene reporter in three human cell lines expressing EGFP (GFP-U2OS, EGFP-HEK, EGFP-JURKAT).
Stock solutions of amphipathic peptides were prepared at 1 mg/mL in distilled water and sonicated for 10 min. CAS9 protein was preloaded with purified EGFP sgRNA at a molar ratio of 1:1 and incubated for 10 min prior to forming complexes with the peptides. Preloaded CAS9/gRNA complexes (10 nM, 25 nM, and 50 nM) were mixed with CPPs at 5:1, 10:1 and 20:1 molar ratios of CPP to cargo and incubated for 30 min at 37° C. prior to cell transfection.
Cell line containing a single integrated EGFP reporter gene (GFP-U2OS, EGFP-HEK and EGFP-JURKAT) were cultured in Dulbecco's Modified Eagle's Medium (DMEM), supplemented with 2 mM glutamine, 1% antibiotics (streptomycin 10,000 μg/mL, penicillin, 10,000 IU/mL) and 10% (w/v) foetal calf serum (FCS) at 37° C. in a humidified atmosphere containing 5% CO2. A total of 150,000 cells seeded in a 35 mm dish the day prior to transfection were grown to 50-60% confluence and overlaid with 200 μl of preformed complexes, incubated for 3-5 min, then 400 μl of DMEM was added. After 30 min incubation at 37° C., 1 mL of fresh DMEM containing 16% FCS was added to reach a final FCS concentration of 10%, without removing the overlay of CPP/CAS9-gRNA complexes. Cells were returned to the incubator for 72 hours.
CAS9-induced double-strand break formation was analyzed using flow cytometry by monitoring level of EGFP expression. […] Both lipofectamine 2000 and RNAiMAX delivery methods were used as positive controls.

[2] = tested on: endogenous hPD1 gene in JURKAT and K562 cells; test: hPD1 gene editing in T cell lines (T7E1 assay); format: cell-based, human; details: CAS9/sgRNA 5 μg/10 μg
Description: CAS9 protein was preloaded with purified sgRNA at a molar ratio of 1:1 and incubated for 10 min prior to forming complexes with peptides.
5×10^6 cells were washed twice with DPBS by centrifuging at 800 rpm for 5 minutes and resuspended in 100 ^l transfection buffer, and then transferred into the electroporation cuvette. An optimized program selected for both high transfection and high efficiency on T cells was used. After electroporation, cells were resuspended in 500 ^l pre-warmed AIM-V medium containing 10% FBS and incubated at 37° C. in 5% CO2. The transfection efficiency was evaluated after 48 hr by flow cytometry or T7E1 assay.
RNAiMAX delivery method was used as positive control. Cells were either resuspended in or overlaid with 100 μl of preformed complexes, incubated for 3-5 min, and then 300 μl of DMEM was added. […] The indel frequency in the hPD1 gene was quantified using the T7E1 assay.

[3] = tested on: hPD1 gene in human T cells; test: hPD1 gene editing in primary human T cells (T7E1 assay); format: cell-based
Description: T cells were isolated from PBMCs (2 different donors) using anti-CD3/anti-CD28 antibodies bound to paramagnetic beads (Dynabeads ClinExVivo CD3/CD28, Invitrogen) at a ratio of 3:1 (beads:cells). The cells and beads were co-incubated for 2 hours at room temperature and CD3′ cell enrichment was performed using Dynal ClinExVIVO MPC magnet (Thermo Fisher). The anti-CD3/anti-CD28 paramagnetic beads were removed, washed and concentrated. Cells in the CD3′ fraction were resuspended in activation media at a concentration of 1×10^6 cells/ml with AIM-V medium (Thermo Fishers) supplemented with 10% fetal calf serum, 300 IU/ml IL2 and 50 ng/ml OKT3 (MuromonAB-CD3) for two days.
Cells were transfected by electroporation with CD-19 plasmid or gRNA/CAS9 (5 μg/10 μg) using a Nucleofector 2b (Lonza, Germany) with the Amaxa Human T cells Nucleofector Kit, VPA-1002 (Lonza, Germany). 5×10^6 cells were washed twice with DPBS by centrifuging at 800 rpm for 5 minutes and resuspended in 100 ^l transfection buffer, and then transferred into the electroporation cuvette. An optimized program selected for both high transfection and high efficiency on T cells was used. After electroporation, cells were resuspended in 500 ^l pre-warmed AIM-V medium containing 10% FBS and incubated at 37° C. in 5% CO2. The transfection efficiency was evaluated after 48 hr by flow cytometry or T7E1 assay.
As control, CAS9 loaded with gRNA targeting GFP was used.
Cells were returned to the incubator for 72 hours. CAS9-induced double-strand break followed by repair through non-homologous end joining (NHEJ) was analyzed by either the T7E1 assay or using the Genome Cleavage Detection kit (GCD Thermo Fisher) and quantified using Fragment Analyzer System. The indel frequency in the target gene was quantified using the T7E1 assay. The cultures were expanded and analyzed for viability and PD1 levels every 10 days. T cell expansion medium contained AIM V medium, supplemented with 5% heat-inactivated human AB Serum, 1% Gluta-Max, and 300 IU/mL IL-2.

[4] = CPP/CAS9 and CPP/CAS9:gRNA particle size, polydispersity, zeta potential (Zetasizer 4); format: physicochemical
Description: The CPP/CAS9 and CPP/CAS9/sgRNA particles were further characterized; the mean size, polydispersity and zeta potential were measured with Zetasizer 4 apparatus (Malvern Ltd). […] The mean size and the polydispersity of the CCP/CAS9 and CCP/CAS9:gRNA complexes were determined at 25° C. for 3 min per measurement and zeta potential was measured with Zetasizer 4 apparatus (Malvern Ltd).

[5] = tested on: endogenous EMX1 and exogenous EGFP reporter genes in GFP-U2OS, EGFP-JURKAT cells; test: Delivery of multiple RGEN/gRNA complexes: EMX1 and EGFP editing; format: cell-based, human
Description: RNAiMAX delivery was used as positive control. Cells were treated as described previously and CAS9-induced NHEJ analyzed 72 hr after transfection. […] The deletion (indel) frequency in the EMX1 gene was quantified using the T7E1 assay and loss of EGFP expression was monitored by flow cytometry. Data for on-target mutations induced by RGEN/gRNA are reported as an average of 3 separate experiments.

[6] = tested on: endogenous EMX1, AAVS and HPRT genes in Mouse (ESF-158) embryonic stem cells; test: Delivery of multiple RGEN:gRNA complexes: EMX1, AAVS, HPRT editing in mouse ES cells (T7E1); format: cell-based
Description: (§1) RNAiMAX delivery method was used as a positive control.
(§2) U2OS cells were treated as described previously. H9 embryonic stem cells were cultured in Dulbecco's modified Eagle's medium with 4 mM L-glutamine adjusted to contain 1.5 g/L sodium bicarbonate and 4.5 g/L glucose and supplemented with 0.1 mM 2-mercaptoethanol, 85%; and 15% ES-Cell Qualified fetal bovine serum. […] CAS9-induced double-strand break formation followed by repair through NHEJ was analyzed 72 hr after transfection by T7E1 assay and quantified using Fragment Analyzer System. The deletion (indel) frequencies in EMX1, AAVS and HPRT genes were quantified using T7E1 assay. Data for on-target mutations induced by RGEN:gRNA are reported as an average of 3 separate experiments.

[7] = tested on: endogenous EMX1, AAVS and HPRT genes in U2OS and Human (H9) embryonic stem cells; test: Delivery of multiple RGEN:gRNA complexes: EMX1, AAVS, HPRT editing in U2OS and H9 ES cells (T7E1); format: cell-based
Description: as §1, §2

[8] = tested on: EGFP-U2OS, EGFP-HEK, EGFP-JURKAT cells; test: Toxicity of CPP/CAS9/gRNA complexes (MTT assay); format: cell-based; details: three cell lines; concentrations up to 100 nM; 24 h
Description: The robust EGFP disruption observed in the three cell lines was found not to be the result of cellular toxicity. […] A total of 30,000 cells seeded in 24-well plates the day prior to transfection were incubated with increasing concentrations of CPP/CAS9/gRNA (complexed at a 10:1 or 20:1 molar ratio of CPP to preloaded CAS9/gRNA complex) ranging from 1 to 200 nM for 30 min prior to addition of medium to reach a final 10% concentration of FCS. Cytotoxic response was measured 24 hours later by colorimetric MTT assay (Sigma, Germany). For MTT assay, cell culture medium was removed and replaced with PBS containing 2.5 mg/ml MTT for 4 hours. Results correspond to the average of 3 separate experiments. […] Viability was reduced by less than 10% at 200 nM. In contrast, at […] for Lipofectamine 2000 or RNAiMAX, between 60-70% and 20-25% cell death was observed, depending on cell line. Moreover, both lipid methods appeared to be highly toxic on JURKAT cells, inducing 75% (lipofectamine 2000) or 45% (RNAiMAX) cell death.

[9] = tested on: endogenous EMX1 gene in U2OS, JURKAT and K562 cells; test: EMX1 gene editing from CPP delivery of CAS9/gRNA (T7E1 assay); format: cell-based, human
Description: RNAiMAX delivery was used as a positive control as it was previously reported to show better results than Lipofectamine 2000 (Zuris et al., 2015, supra). […] Cells were returned to the incubator for 72 hours.

GLWRALWRLLRSLWRLLWKV [CADY, reference compound]
reduction of EGFP-positive cells [1]: 18% | decrease in EGFP expression ([1]; HEK): 42% | reduction of EGFP-expressing cells / loss of EGFP expression ([1]; 1 nM CAS9:gRNA): no change in EGFP expression | decrease in EGFP expression ([1]; U2OS): 33% | loss of EGFP expression ([1]; both cell lines (U2OS, HEK), 1 nM CAS9:gRNA): no change in EGFP expression | Mean indel Frequency ± s.e.m ([2]; JURKAT): 12 ± 9% | Mean indel Frequency ± s.e.m ([2]; K562): 15 ± 9% | Mean indel Frequency ± s.e.m ([3]; Donor 1, CAS9/sgRNA 2.5 μg/5 μg): 0% | Mean indel Frequency ± s.e.m ([3]; Donor 1, CAS9/sgRNA 5 μg/10 μg): 0% | Mean indel Frequency ± s.e.m ([3]; Donor 2, CAS9/sgRNA 2.5 μg/5 μg): 0% | Mean indel Frequency ± s.e.m ([3]; Donor 2, CAS9/sgRNA 5 μg/10 μg): 0% | mean indel frequency of hPD1 gene ([3]; T cells from the two donors, 5 μg/10 μg CAS9/gRNA): No editing | complex formation with CAS9 [4]: did not form any complex | PI ([4]; Cas9:gRNA, molar ratio 20/1): 0.6 and 0.6 ± 0.2 | Size ([4]; Cas9:gRNA, molar ratio 20/1): 350±20 nm | zeta ([4]; Cas9:gRNA, molar ratio 20/1): 45 ± 8 MV | formation of stable particles with preloaded CAS9:gRNA complex ([4]; molar ratio 10:1): neither CADY nor VEPEP-9 formed stable particles

N=C(N)NCCC[C@H](NC(=O)[C@H](CCCNC(=N)N)NC(=O)[C@H](CCCCN)NC(=O)[C@H](CCCNC(=N)N)NC(=O)[C@@H]1CCCN1C(=O)[C@H](Cc1c[nH]c2ccccc12)NC(=O)[C@H](CCC(=O)O)NC(=O)[C@H](CCCNC(=N)N)NC(=O)[C@H](Cc1c[nH]c2ccccc12)NC(=O)[C@H](Cc1c[nH]c2ccccc12)NC(=O)[C@H](CCCNC(=N)N)NC(=O)[C@H](CCC(=O)O)NC(=O)[C@H](Cc1c[nH]c2ccccc12)NC(=O)[C@H](Cc1c[nH]c2ccccc12)NC(=O)[C@H](CCCCN)NC(=O)CCN)C(=O)O [VEPEP-3b]
reduction of EGFP-positive cells [1]: 87% | reduction of number of EGFP-expressing cells ([1]; HEK, 1 nM CAS9:gRNA): 71% | decrease in EGFP expression ([1]; HEK): 93% | reduction of EGFP-expressing cells / loss of EGFP expression ([1]; 1 nM CAS9:gRNA): 55% | reduction of number of EGFP-expressing cells ([1]; U2OS, 1 nM CAS9:gRNA): 68% | decrease in EGFP expression ([1]; U2OS): 92% | Mean indel Frequency ± S.E.M ([5]; JURKAT, EGFP): 84 ± 7% | Mean indel Frequency ± S.E.M ([5]; JURKAT, EMX1): 79 ± 7% | Mean indel Frequency ± S.E.M ([5]; U2OS, EGFP, 25 nM each complex): 80 ± 5% | Mean indel Frequency ± S.E.M ([5]; U2OS, EMX1): 82 ± 6% | Mean indel Frequency ± S.E.M ([6]; AAVS): 79 ± 5% | Mean indel Frequency ± S.E.M ([6]; EMX1): 84 ± 6% | Mean indel Frequency ± S.E.M ([6]; HPRT): 85 ± 7% | PI ([4]; Cas9:gRNA, molar ratio 10/1): 0.35 ± 0.1 | Size ([4]; Cas9:gRNA, molar ratio 10/1): 38 ± 4 nm | zeta ([4]; Cas9:gRNA, molar ratio 10/1): 27.0 ± 4 MV | PI ([4]; Cas9:gRNA, molar ratio 20/1): 0.37 ± 0.1 | Size ([4]; Cas9:gRNA, molar ratio 20/1): 51 ± 5 nm | zeta ([4]; Cas9:gRNA, molar ratio 20/1): 25.3 ± 7 MV | Pt ([4]; Cas9, molar ratio 10/1): 0.33 ± 0.1 | zeta ([4]; Cas9, molar ratio 10/1): 21.0 ± 5 mV | Size ([4]; Cas9, molar ratio 10/1, 0.9% NaCl): 45 ± 5 nm | Pt ([4]; Cas9, molar ratio 20/1): 0.35 ± 0.1 | Size ([4]; Cas9, molar ratio 20/1): 52 ± 5 nm | zeta ([4]; Cas9, molar ratio 20/1): 17.0 ± 5 mV | formation of stable nanoparticles ([4]; with CAS9 and CAS9:gRNA complex, molar ratio 10:1 or 20:1): able to form stable nanoparticles | Mean diameter ([4]; with CAS9 and CAS9:gRNA, molar ratio 10:1 or 20:1): about 50 nm | Mean indel Frequency ± S.E.M ([7]; H9, AAVS): 71 ± 7% | Mean indel Frequency ± S.E.M ([7]; H9, EMX1): 67 ± 6% | Mean indel Frequency ± S.E.M ([7]; H9, HPRT): 70 ± 4% | Mean indel Frequency ± S.E.M ([7]; U2OS, AAVS): 75 ± 7% | Mean indel Frequency ± S.E.M ([7]; U2OS, EMX1, 20 nM each complex): 82 ± 5% | Mean indel Frequency ± S.E.M ([7]; U2OS, HPRT): 84 ± 6% | toxicity [8]: no toxicity | Mean indel Frequency ± S.E.M ([9]; JURICAT, CAS9/sgRNA 25 nM): 69% and 69 ± 8% | Mean indel Frequency ± S.E.M ([9]; JURKAT, CAS9/sgRNA 50 nM): 71 ± 5% | Mean indel Frequency ± S.E.M ([9]; K562, CAS9/sgRNA 25 nM): 79% and 79 ± 5% | Mean indel Frequency ± S.E.M ([9]; K562, CAS9/sgRNA 50 nM): 81 ± 7% | Mean indel Frequency ± S.E.M ([9]; U2OS, CAS9/sgRNA 25 nM, 20:1): 75% and 75 ± 7% | Mean indel Frequency ± S.E.M ([9]; U2OS, CAS9/sgRNA 50 nM): 77 ± 5%
